The values that follow come from publication PMC10525585, “Evaluation of the Antibacterial Effect of Aurone-Derived Triazoles on Staphylococcus aureus” (Antibiotics, 2023).

Data set [1] relates to HepG2 (ATCC HB-8065) cells. The experiment in a line: Cytotoxicity assay (PrestoBlue). Type of data set: cell-based, Human. The conditions noted are these: Table 1 and text; 24 h incubation; read-out: CC50 (µM) HepG2.
Data set [2] in a line: Cytotoxicity assay (PrestoBlue). In kind it is cell-based, Human. The note with it: human, HepG2 cells (ATCC HB-8065), Table 1 and text; 24 h incubation.
The test system of data set [3] is methicillin-sensitive S. aureus ATCC 29213 (MSSA). Nature of the data set: microbe, parasite or virus in culture. The note with it: for Max SI (CC50/IC50): HepG2 CC50 / MSSA IC50; for IC50 / inhibition at 100 µM: Staphylococcus aureus; for IC50: read-out: IC50 (µM) MSSA; for inhibition at 100 µM: read-out: MSSA inhibition (100µM). The procedure:
(§1) MRSA strain ATCC 43300 and MSSA strain S. aureus ATCC 29213 were grown on Tryptic Soy Agar (TSA) plates. Before use, an isolated colony was transferred from the TSA plate into Tryptic Soy Broth (TSB) and incubated 18–24 h in a humidified incubator at 37 °C. To adjust for a standard concentration of bacteria, the turbidity of the culture was measured at 600 nm, and its optical density (OD600) adjusted to be in the range 0.08–0.12 which equates to a concentration of approximately 1 × 10^8 CFU/mL. This suspension was diluted 1:20 in TSB. […] MRSA strain S. aureus ATCC 43300 and MSSA strain S. aureus ATCC 29213 were used for all testing in this study.
(§2) The assay for anti-Staphylococcal activity of AT compounds was prepared in 96-well transparent, U-bottom plates. A series of 2-fold dilutions of AT concentrations was tested in triplicate, with each well containing 10 µL of prepared bacterium and 90 µL of AT mixture in CAMHB. […] Blank wells with only CAMHB, a negative control well with 10 µL of bacterium solution mixed into 90 µL CAMHB, a vehicle control well with bacteria mixed into 1% DMSO in CAMBH, and a positive cell death control with vancomycin (1 µL of stock 2 mg/mL solution in 89 µL CAMHB with 10 µL of bacteria) were included. The plate was incubated for 18–24 h at 37 °C in a humidified incubator. Before measurement, PrestoBlue^TM dye (Invitrogen, Carlsbad, CA, USA) was added (10 µL per well) and incubated for 1 h with aluminum foil covering the plate. A CLARIOstar® (BMG LABTECH, Cary, NC, USA) multi-mode plate reader was used to measure the fluorescence at wavelengths of 560 nm for excitation and 590 nm for emission. Inhibitory concentration (IC50) values were defined as half inhibitory concentration and were computed using GraphPad Prism version 9.1 software.

For the next data set, the system named is MSSA. Nature of the data set: Checkerboard assay with antibiotics. Type of data set: cell-based, Staphylococcus aureus. The conditions noted are these: smallest ratio; <0.5 synergy, 0.5–4 no interaction, >4 antagonism. How it is done: (§3) This preparation for the checkerboard assay was analogous to the antibacterial assay described above in that the standard (5 × 10^5 CFU/mL) concentration of bacteria in media was mixed with 2-fold dilutions of antibacterial agents to verify their inhibition potential. […] Control wells contained 10 µL of bacteria with 90 µL of CAMHB, and the negative control was bacteria in 1% DMSO and CAMHB. Incubation, staining with PrestoBlue^TM, and assessing cell viability are as described for the antibacterial assay above.

In another data set the test system is MRSA. Nature of the data set: Checkerboard assay with antibiotics. In kind it is cell-based, Staphylococcus aureus. The note with it: smallest ratio; <0.5 synergy, 0.5–4 no interaction, >4 antagonism. How it is done:
as §3

Data set [4] in a line: Cytotoxicity assay (PrestoBlue). The note with it: human, HeLa cells (ATCC CCL-2). How it is done: Human HeLa epithelial (ATCC CCL-2) and HepG2 liver epithelial (ATCC HB-8065) cell lines were used to determine toxicity of AT compounds for mammalian cells. The cells were grown in a complete culture medium of RPMI 1640 with 10% heat-inactivated fetal bovine serum (FBS) at 37 °C in 5% CO2 (95% room air) in a humidified incubator. Before use, attached cell monolayers, which had reached at least 90% confluency, were detached by trypsinization with trypsin-EDTA (0.25%) and resuspension in fresh complete culture media. For experiments, the stock concentration of 1 × 10^5 cells/mL (to achieve a final 1 × 10^4 cells/well concentration) was achieved by counting the trypsinized cells and adjusting to their final concentration for assays.
HeLa or HepG2 cells were pre-seeded into a 96-well transparent, flat bottom plate by adding a volume of 100 µL stock cell concentration (1 × 10^5 cells/mL) in complete culture media to each well. The plate was incubated overnight at 37 °C in a 5% CO2 (95% room air) humidified incubator. After the incubation and before mixing in the AT compounds, a 100 µL volume of fresh complete culture media was added to the pre-seeded wells. The 2-fold dilutions of AT compounds in triplicates were prepared on a separate 96-well plate. Once the dilution plate was prepared, dilutions were transferred into the pre-seeded plate to achieve the same concentrations of ATs as for the inhibition assay described above. The final inoculated plate was then returned to the 5% CO2 (95% room air) humidified incubator for an additional 24 h of incubation with the diluted ATs. Controls were blank wells containing only media, wells with cells and DMSO in complete culture media, and wells with cells and complete culture media only. Measurement of toxicity was analogous to the inhibition assay except that 20 µL of PrestoBlue^TM was used and the incubation was 3–6 h before reading with the plate-reader. Cytotoxicity concentration (CC50) was defined as the concentration where half of the cells remained viable and was computed using GraphPad Prism.

Data set [5] relates to methicillin-resistant S. aureus ATCC 43300 (MRSA). Nature of the data set: Antibacterial assay (broth microdilution, PrestoBlue). In kind it is cell-based, Staphylococcus aureus. The procedure: as §1, §2
The mark [6] stands for this setting: CC50 (µM) HeLa, Table 1 and text, 24 h incubation.
Where [7] appears, read: Staphylococcus aureus, Table 1 and text, 18–24 h, CAMHB, read-out: IC50 (µM) MRSA.
Setting [8] is: Staphylococcus aureus, Table S1, read-out: IC50 MRSA.
The mark [9] stands for this setting: Staphylococcus aureus, Table S1.

Like-named read-outs stand apart in the source and are kept apart here.

For the compound `O=C(c1ccccc1O)c1n[nH]nc1-c1ccc(Cl)cc1` [AT106], the cytotoxic concentration (CC50) in data set [1] turned out to be 70.7 µM. The CC50 at 24 h in data set [2] was above 60 µM; in data set [4] (setting [6]), above 60 µM; in data set [4] (CC50 HeLa (µM), Table S1), 16.2 µM. Also, the “Max SI (CC50/IC50)” value in data set [3] worked out at 12.99. The half-inhibitory concentration (IC50) in data set [3] was 5.44 µM; in data set [5] (setting [7]), 22.4 µM; in data set [5] (setting [8]) it was 23.5 µM. In addition, the inhibition at 100 µM in data set [3] was 87.4%; in data set [5] (setting [9]), 64.1%. The “FICi with Daptomycin, MSSA” value with MSSA came to 0.25. Besides, the “FICi with Vancomycin, MSSA” value in the data set with MSSA worked out at 0.57. In addition, in the data set with MRSA, the “FICi with Daptomycin, MRSA” value came out at 0.05. Besides, the “FICi with Vancomycin, MRSA” value in the data set with MRSA came to 0.52.
On to `O=C(c1ccccc1O)c1n[nH]nc1-c1cccc(C(F)(F)F)c1` [AT116], for which the cytotoxic concentration (CC50) at 24 h in data set [2] turned out to be 50.9 µM; in data set [4] (setting [6]), 56.8 µM; in data set [4] (CC50 HeLa (µM), Table S1), 11.7 µM. The “Max SI (CC50/IC50)” value in data set [3] stood at 16.01. The IC50 worked out at 3.18 µM in data set [3], 8.29 µM in data set [5] (setting [7]) and 35.4 µM in data set [5] (setting [8]). For the same compound, the values for the inhibition at 100 µM in data set [3] and in data set [5] (setting [9]) were 82% and 100%, respectively. Further, the “FICi with Daptomycin, MSSA” value in the data set with MSSA was 0.28. The “FICi with Daptomycin, MRSA” value in the data set on MRSA is given as 0.05. The “FICi with Vancomycin, MRSA” value in the data set on MRSA stood at 1.03.
For the compound `O=C(c1ccccc1O)c1n[nH]nc1-c1ccc(Br)s1` [AT137], the half-maximal cytotoxic concentration (CC50) at 24 h stood at 39.8 µM in data set [2]; 2.84 µM in data set [4] (setting [6]); 12.7 µM in data set [4] (CC50 HeLa (µM), Table S1). Moreover, the half-maximal inhibitory concentration (IC50) in data set [3] is 3.09 µM; in data set [5] (setting [7]), below 6 µM; in data set [5] (Table 1 and text, 18–24 h, CAMHB, read-out: IC50 (µM) MRSA), 3.87 µM. In addition, the inhibition at 100 µM came out at 87.5% in data set [3] and 93.8% in data set [5] (setting [9]). Further, in the data set with MSSA, the “FICi with Daptomycin, MSSA” value was 0.38. In the data set with MSSA, the “FICi with Vancomycin, MSSA” value is listed as 1.5. Also, the “FICi with Daptomycin, MRSA” value with MRSA is 0.19. Also, the “FICi with Vancomycin, MRSA” value in the data set on MRSA is given as 1.13.

What is called CC50 is the concentration at which the toxic effect on the cells reaches its halfway point. One may read the IC50 as the point on the concentration scale where inhibition reaches its midpoint. A word on the inhibition: it is the relative decrease from the control value, in per cent.
